From PubChem BioAssay (NCI)
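Tested at 5 concentrations; 48 h exposure; 96-well plates; endpoints linearly interpolated, else capped at highest concentration. Here, GI50 denotes the concentration required for 50% inhibition of growth. TGI: concentration producing complete growth inhibition.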

Columns and labels:
Experiment in all cases: NCI tumour cell line growth inhibition, 48 h
COLO 205 colon = tested on: COLO 205 colon
KM12 colon = tested on: KM12 colon
A549 NSCLC = tested on: A549 NSCLC
TK-10 renal = tested on: TK-10 renal
A498 renal = tested on: A498 renal
SN12C renal = tested on: SN12C renal
SF-295 CNS = tested on: SF-295 CNS
HCT-116 colon = tested on: HCT-116 colon
SW-620 colon = tested on: SW-620 colon
SK-MEL-2 melanoma = tested on: SK-MEL-2 melanoma

| Compound | GI50 (COLO 205 colon) | TGI (COLO 205 colon) | GI50 (KM12 colon) | TGI (KM12 colon) | GI50 (A549 NSCLC) | TGI (A549 NSCLC) | GI50 (TK-10 renal) | TGI (TK-10 renal) | GI50 (A498 renal) | TGI (A498 renal) | GI50 (SN12C renal) | TGI (SN12C renal) | GI50 (SF-295 CNS) | TGI (SF-295 CNS) | GI50 (HCT-116 colon) | TGI (HCT-116 colon) | GI50 (SW-620 colon) | TGI (SW-620 colon) | GI50 (SK-MEL-2 melanoma) | TGI (SK-MEL-2 melanoma) |
| --- | --- | --- | --- | --- | --- | --- | --- | --- | --- | --- | --- | --- | --- | --- | --- | --- | --- | --- | --- | --- |
| CC(C)[C@@H]1NC(=O)[C@]2(C)CSC(=N2)c2csc(n2)CNC(=O)C[C@@H](/C=C/CCS)OC1=O | 0.228 µM | 0.709 µM | 0.0526 µM | > 32.4 µM | 0.0383 µM | 20.9 µM | 0.0864 µM | 1.35 µM | 0.0156 µM | 0.114 µM | 0.403 µM | > 100 µM | 0.0358 µM | 0.51 µM | 0.123 µM | 1.08 µM | 0.227 µM | 2.28 µM | 0.049 µM | 1.49 µM |
| COc1ccc(C2=C(Br)C(=O)OC2)cc1Cl | 0.832 µM | > 30.9 µM | 23.6 µM | > 84.4 µM | 18.5 µM | 53.6 µM | 26.8 µM | 77.9 µM | 27.9 µM | > 80.7 µM | 22.1 µM | 52.3 µM | 34 µM | 98.4 µM | 20.4 µM | 49.5 µM | 32.2 µM | > 100 µM | > 91.2 µM | > 100 µM |
| O=C1OCC2=C1C(c1cccc([N+](=O)[O-])c1)c1cc3c(cc1N2CCO)CCC3 (stereo not given) | 0.153 µM | 2.39 µM | 0.0928 µM | 19.8 µM | 0.223 µM | > 50 µM | 6.42 µM | > 50 µM | 0.0684 µM | 0.376 µM | 0.339 µM | > 39.9 µM | 0.0789 µM | 16.4 µM | 0.148 µM | 16 µM | 0.179 µM | > 50 µM | 2.8 µM | 48 µM |
| [Ce+3].[Cl-].[O-]/N=C(\c1ccccc1)c1ccccn1.[O-]/N=C(\c1ccccc1)c1ccccn1.[O-]/N=C(\c1ccccc1)c1ccccn1 | 33.1 µM | > 100 µM | 46.8 µM | > 100 µM | 42.4 µM | > 100 µM | 51.4 µM | > 100 µM | 54 µM | > 100 µM | 47.9 µM | > 100 µM | 37.2 µM | > 100 µM | 33.8 µM | > 100 µM | 46.1 µM | > 100 µM | 30.9 µM | 76.6 µM |
| O=C(/C=C/c1ccccc1Cl)c1ccc(O)cc1 | 12.8 µM | 34.8 µM | 3.57 µM | 11.6 µM | 7.33 µM | 25.1 µM | 18.1 µM | 32.4 µM | 8.46 µM | 21.6 µM | 8.51 µM | 33.1 µM | 8.97 µM | 23.7 µM | 2.98 µM | 10.8 µM | 2.89 µM | 7.88 µM | 15 µM | 31.2 µM |
| O=C(Nc1cccnc1)c1cccs1 | 3.08 µM | > 100 µM | 0.941 µM | > 100 µM | 5.6 µM | > 100 µM | > 100 µM | > 100 µM | > 100 µM | > 100 µM | 25.8 µM | > 100 µM | 5.04 µM | > 100 µM | 1.89 µM | > 100 µM | 2.09 µM | > 100 µM | > 100 µM | > 100 µM |
| NCC(=O)Nc1ccc(-n2nc(C(F)(F)F)cc2-c2ccc3c(ccc4ccccc43)c2)cc1 | 1.36 µM | 2.89 µM | 0.922 µM | 2.18 µM | 0.959 µM | 2.41 µM | 1.49 µM | 2.87 µM | 1.86 µM | 3.84 µM | 1.65 µM | 3.4 µM | 1.16 µM | 2.6 µM | 0.761 µM | 2 µM | 0.835 µM | 2.16 µM | 1.82 µM | 3.48 µM |
| CN(C)c1cc2c(cc1Sc1nc3c(N)nccc3n1CCNCC(C)(C)C)OCO2 | 0.37 µM | 11.6 µM | 0.305 µM | 2.79 µM | 0.438 µM | 18.7 µM | 0.531 µM | 19.4 µM | 1.46 µM | 10.1 µM | 0.507 µM | 25 µM | 0.444 µM | 13.6 µM | 0.381 µM | 13.9 µM | 0.383 µM | 13.8 µM | 1.05 µM | 16.9 µM |
| Clc1ccc(-c2nc(-c3c[nH]c4ncccc34)cs2)cc1 | > 100 µM | > 100 µM | > 100 µM | > 100 µM | > 100 µM | > 100 µM | > 100 µM | > 100 µM | > 100 µM | > 100 µM | > 100 µM | > 100 µM | > 100 µM | > 100 µM | 52.9 µM | > 100 µM | 36.3 µM | > 100 µM | > 100 µM | > 100 µM |
| Cc1oncc1C(=O)Nc1ccc(C(F)(F)F)cc1 | > 100 µM | > 100 µM | 35.8 µM | > 100 µM | 39.8 µM | > 100 µM | > 100 µM | > 100 µM | 9.97 µM | 58.7 µM | > 100 µM | > 100 µM | 19.5 µM | > 100 µM | 15.6 µM | > 100 µM | 92.5 µM | > 100 µM | > 100 µM | > 100 µM |
